Assay results published in patent US20020022619A1, “Tricyclic fused pyridine and pyrimidine derivatives as CRF antagonists” (priority 2000, published 2002).

How the values were obtained:
[1] = test system: “anxiogenic” effects of CRF; conditions: cited from earlier work; for effect on the “anxiogenic” effects / actions of CRF in the conflict test: rats, given with CRF

SMILES	melting point [°C]	effect on the “anxiogenic” effects / actions of CRF in the conflict test [1]	behavioral activity alone in the operant conflict test ([1]; compound alone, without CRF)
CCN1CCCn2c(=O)n(-c3ccc(C(C)C)cc3Br)c3nc(C)nc1c32 [Example 1, 2-(2-Bromo-4-isopropyl-phenyl)-6-ethyl-4-methyl-6,7,8,9-tetrahydro-2H-2,3,5,6,9a-pentaaza-benzo[cd]azulen-1-one]	144.5 to 146	–	–
CNC(=O)c1cc2c(cn1)[nH]c1ccccc12 [FG7142]	–	enhanced the actions of CRF	–
CCOC(=O)c1ncn2c1CN(C)C(=O)c1cc(F)ccc1-2 [Ro15-1788]	–	reversed the effects of CRF in a dose-dependent manner	without behavioral activity alone
